How the values were obtained:
LRRK2 DA neurons = test: Calcium imaging (Ca oscillation, FDSS/μCELL) of DA neuron spheroids, LRRK2; assay type: cell-based, human
Protocol: (§1) For calcium imaging experiments, DA neurons were cultured as spheroids (50,000/well) in the 384 U bottom ULA plates (S-bio plates) and fed with Brainphys complete media (Brainphys basal media+neural supplement A+NSS). […] On day 14 post-plating (7 days post-treatment) cells were loaded with 1× EarlyTOX cardiotoxicity kit and after 2 hours of incubation at 37° C., Ca2+ oscillation captured using FDSS/μCELL instrument for 20 minutes. Waveform software was used for quantification of Ca oscillation and data were analyzed using GraphPad Prism.
(§2) Calcium oscillation traces of day 14 post plated DA neurons were captured using FDSS/μCELL instrument for 20 minutes. […] Calcium transient properties including (FIG. 13B) number of peaks, (FIG. 13C) peak rates per minute and (FIG. 13D) area under the curve/peak (average) were quantified for all wells (repeats) of each cell line using Waveform software.

GCase [1] = target: T1, GCase (Homo sapiens, UniProt P04062); test: GCase activity assay after compound treatment, LRRK2 (G2019S) iPSC-derived DA neurons; assay type: cell-based; details: 10 uM for two weeks, day 21 post thaw
T1 construct: endogenous in cells; host or cells: DA neurons differentiated from LRRK2 patient, SNCA A53T engineered or AHN (healthy donor) iPSCs (lysate)
T1 sequence (P04062 40-536): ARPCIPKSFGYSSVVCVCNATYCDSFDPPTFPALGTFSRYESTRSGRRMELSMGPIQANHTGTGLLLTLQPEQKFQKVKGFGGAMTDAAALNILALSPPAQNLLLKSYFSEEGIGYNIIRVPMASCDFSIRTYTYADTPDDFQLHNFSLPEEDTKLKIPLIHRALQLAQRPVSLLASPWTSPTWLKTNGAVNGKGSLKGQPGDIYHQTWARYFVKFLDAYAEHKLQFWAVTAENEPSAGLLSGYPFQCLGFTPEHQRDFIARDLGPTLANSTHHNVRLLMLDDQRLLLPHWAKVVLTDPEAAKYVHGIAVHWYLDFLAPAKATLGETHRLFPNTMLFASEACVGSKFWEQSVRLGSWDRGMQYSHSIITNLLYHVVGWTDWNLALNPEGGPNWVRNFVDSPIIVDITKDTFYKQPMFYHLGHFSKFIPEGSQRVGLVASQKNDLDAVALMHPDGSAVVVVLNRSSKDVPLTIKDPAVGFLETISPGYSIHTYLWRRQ
Protocol: (§3) The cells were harvested, lysed and centrifuged at 20,000×g for 20 min at 4° C. […] Recombinant human Glucosylceramidase/GBA (rhGBA) (R&D, 7410-GHB-020) was used as a positive control. Samples were incubated for 40 minutes at 37° C. and reaction stopped by adding equivolume 1M glycine, pH 12.5. 100 μl of reactions were loaded into white 96-well plates (Nunc, #136101) and fluorescence (ex=355 nm, em=460, 0.1 s) signal were measured in the CLARIOstar plate reader (Molecular Devices). Relative fluorescent units (RFUs) from non CBE-treated lysates were calculated by subtracting the signal from the corresponding CBE-treated lysates. […] DA neurons were cultured at high density (200,000/well) in the 96 well plates. Gcase activity was measured from DA neurons derived from GBA, LRRK2 and AHN iPSCs after compound treatment. […] Total protein in the lysate was quantified using Pierce BCA Protein Assay Kit (ThermoFisher). […] Single compounds were tested both for acute exposure (3 days) and chronic exposure (two weeks).

GCase [2] = target: T1, GCase; test: GCase activity assay after compound treatment, AHN iPSC-derived DA neurons; assay type: cell-based; details: 10 uM for two weeks, day 21 post thaw, from 165052 (DMSO vehicle)
Protocol: as §3

GCase [3] = target: T1, GCase; test: GCase activity assay after compound treatment, SNCA A53T iPSC-derived DA neurons; assay type: cell-based; details: 10 uM for two weeks, day 21 post thaw
Protocol: as §3

SNCA DA neurons = test: Calcium imaging (Ca oscillation, FDSS/μCELL) of DA neuron spheroids, SNCA; assay type: cell-based, human; details: 10 uM for one week
Protocol: as §1, §2

AHN DA neurons = test: Calcium imaging (Ca oscillation, FDSS/μCELL) of DA neuron spheroids, AHN; assay type: cell-based, human; details: 10 uM for one week
Protocol: as §1, §2

GCase [4] = test: GCase activity assay after compound treatment, GBA (N370S) iPSC-derived DA neurons; assay type: cell-based, human; details: for GCase activity (mean±SD): chronic treatment (two weeks) 10 uM, DMSO=90302±3986
Protocol: The cells were harvested, lysed and centrifuged at 20,000×g for 20 min at 4° C. […] Recombinant human Glucosylceramidase/GBA (rhGBA) (R&D, 7410-GHB-020) was used as a positive control. Samples were incubated for 40 minutes at 37° C. and reaction stopped by adding equivolume 1M glycine, pH 12.5. 100 μl of reactions were loaded into white 96-well plates (Nunc, #136101) and fluorescence (ex=355 nm, em=460, 0.1 s) signal were measured in the CLARIOstar plate reader ([…]). Relative fluorescent units (RFUs) from non CBE-treated lysates were calculated by subtracting the signal from the corresponding CBE-treated lysates. […] DA neurons were cultured at high density (200,000/well) in the 96 well plates. Gcase activity was measured from DA neurons derived from GBA, LRRK2 and AHN iPSCs after compound treatment. […] Total protein in the lysate was quantified using Pierce BCA Protein Assay Kit (ThermoFisher). GCase activity can be used as a read out for compound screening with disease neurons where AHN serve as a control and compounds that could rescue the GCase activity would be considered a positive hit. […] Single compounds were tested both for acute exposure (3 days) and chronic exposure (two weeks).

Nc1c(Br)cc(Br)cc1CN[C@H]1CC[C@H](O)CC1 [Ambroxol]
Peak rate (mean±SD) (LRRK2 DA neurons; LRRK2, 10 uM for one week, day 14 post plating, untreated 1.52±0.16): 1.89±0.18 peaks per minute
effect on Ca oscillation compared to the untreated AHN DA neurons (LRRK2 DA neurons; LRRK2 DA neurons, 10 uM for one week): caused hyperexcitability
increase in Gcase activity (GCase [1]): 18%
Gcase activity (Mean) (GCase [2]): 171669
increase in Gcase activity (GCase [3]): 14%
effect on Ca oscillation compared to the untreated AHN DA neurons (SNCA DA neurons; SNCA DA neurons): caused hyperexcitability
number of peaks (mean±SD) (SNCA DA neurons; SNCA, day 14 post plating, 20 minutes, untreated 24.5±5.3): 33.8±1.5
Peak rate (mean±SD) (SNCA DA neurons; SNCA, day 14 post plating, untreated 1.26±0.3): 1.61±0.12 peaks per minute
effect on Ca oscillation compared to the untreated AHN DA neurons (AHN DA neurons; AHN DA neurons): caused hyperexcitability
number of peaks (mean±SD) (AHN DA neurons; AHN, day 14 post plating, 20 minutes, untreated 21.55±3): 33.75±7.14
Peak rate (mean±SD) (AHN DA neurons; AHN, day 14 post plating, untreated 1.12±0.16): 1.74±0.32 peaks per minute
increase in Gcase activity (GCase [4]; GBA neurons, 10 uM for two weeks, day 21 post thaw): 12%
increase in Gcase activity (GCase [4]; combinatorial screen, GBA cells, chronic treatment 10 uM, compared to DMSO): 48%
GCase activity (mean±SD) (GCase [4]; combinatorial screen, GBA cells): highest GCase activity
GCase activity (mean±SD) (GCase [4]; combinatorial screen, GBA cells, listed as ABX): 133659±10542

Source: patent publication US20240034992A1, “DOPAMINERGIC NEURONS COMPRISING MUTATIONS AND METHODS OF USE THEREOF” (FUJIFILM Cellular Dynamics, Inc., priority 2021, published 2024)
